# Assay results reported in ChEMBL document CHEMBL3098111, “Discovery of 2,5-diarylnicotinamides as selective orexin-2 receptor antagonists (2-SORAs)” (Bioorg Med Chem Lett, 2013).
# What was measured:
# Caspase-3 (Homo sapiens) = Caspase-3 (Homo sapiens) (UniProt P42574); assay: Inhibition of human caspase 3 at 10 uM relative to control
# [1] = biological target: Somatostatin receptor type 5 (Homo sapiens) (UniProt P35346); assay: Inhibition of human SST5 receptor at 10 uM relative to control
# [2] = biological target: T1, 5-hydroxytryptamine receptor 1A (Homo sapiens) (UniProt P08908); assay: Inhibition of human 5-HT1A receptor at 1 uM relative to control
# T1 sequence (whole entry): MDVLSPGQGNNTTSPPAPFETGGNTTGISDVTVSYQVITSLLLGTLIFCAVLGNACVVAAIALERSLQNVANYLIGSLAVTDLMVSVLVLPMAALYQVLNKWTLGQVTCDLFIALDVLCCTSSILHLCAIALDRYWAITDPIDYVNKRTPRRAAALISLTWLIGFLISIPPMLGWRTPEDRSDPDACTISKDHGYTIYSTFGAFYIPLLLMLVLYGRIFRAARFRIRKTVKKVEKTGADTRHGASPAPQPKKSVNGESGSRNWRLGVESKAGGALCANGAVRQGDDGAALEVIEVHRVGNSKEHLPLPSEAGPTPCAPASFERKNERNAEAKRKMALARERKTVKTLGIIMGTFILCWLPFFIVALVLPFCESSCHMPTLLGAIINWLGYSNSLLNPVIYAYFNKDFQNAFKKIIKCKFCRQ
# Caspase-6 (Homo sapiens) = Caspase-6 (Homo sapiens) (UniProt P55212); assay: Inhibition of human caspase 6 at 10 uM relative to control
# [3] = biological target: Tyrosine 3-monooxygenase (Rattus norvegicus) (UniProt P04177); assay: Inhibition of rat tyrosine hydroxylase at 10 uM relative to control
# [4] = biological target: Beta-1 adrenergic receptor (Homo sapiens) (UniProt P08588); assay: Inhibition of human beta1 adrenergic receptor at 10 uM relative to control
# [5] = biological target: GABA-A receptor; alpha-5/beta-3/gamma-2 (Homo sapiens) (UniProt P18507+P28472+P31644); assay: Inhibition of human GABA alpha5beta3gamma2 receptor muscimol binding site at 10 uM relative to control; format: protein-complex assay
# [6] = biological target: Endothelin-converting enzyme 1 (Homo sapiens) (UniProt P42892); assay: Inhibition of human ECE-1 at 10 uM relative to control
# [7] = biological target: Somatostatin receptor type 3 (Homo sapiens) (UniProt P32745); assay: Inhibition of human SST3 receptor at 10 uM relative to control
# Chain of Somatostatin receptor type 3 (Homo sapiens) (P32745 whole entry): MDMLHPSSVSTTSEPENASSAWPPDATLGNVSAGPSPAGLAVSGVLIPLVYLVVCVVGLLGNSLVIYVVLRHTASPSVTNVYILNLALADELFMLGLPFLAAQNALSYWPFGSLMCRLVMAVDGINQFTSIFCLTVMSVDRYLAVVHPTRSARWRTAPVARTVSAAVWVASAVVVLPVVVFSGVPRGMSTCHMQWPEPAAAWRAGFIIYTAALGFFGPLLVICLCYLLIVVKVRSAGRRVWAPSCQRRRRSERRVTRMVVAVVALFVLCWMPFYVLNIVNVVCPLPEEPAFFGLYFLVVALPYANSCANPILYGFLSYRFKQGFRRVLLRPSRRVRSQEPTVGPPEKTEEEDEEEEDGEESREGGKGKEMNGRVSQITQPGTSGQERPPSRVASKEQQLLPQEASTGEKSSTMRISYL
# D(3) dopamine receptor [8] = biological target: T2, D(3) dopamine receptor (Homo sapiens, UniProt P35462); assay: Inhibition of human dopamine D3 receptor at 0.1 uM relative to control
# T2 sequence (P35462 whole entry): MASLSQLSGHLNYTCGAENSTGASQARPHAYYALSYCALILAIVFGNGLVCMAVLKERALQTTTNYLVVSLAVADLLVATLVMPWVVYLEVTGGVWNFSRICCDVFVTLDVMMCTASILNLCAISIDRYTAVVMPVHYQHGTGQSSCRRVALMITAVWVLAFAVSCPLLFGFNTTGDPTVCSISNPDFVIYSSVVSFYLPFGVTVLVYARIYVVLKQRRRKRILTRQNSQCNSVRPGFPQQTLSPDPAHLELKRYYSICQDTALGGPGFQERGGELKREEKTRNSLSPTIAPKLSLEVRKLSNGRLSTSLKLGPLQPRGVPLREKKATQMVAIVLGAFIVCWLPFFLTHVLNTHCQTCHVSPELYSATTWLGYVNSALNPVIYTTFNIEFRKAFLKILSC
# [9] = biological target: T3, 5-hydroxytryptamine receptor 2B (Homo sapiens, UniProt P41595); assay: Inhibition of human 5-HT2B receptor at 10 nM relative to control
# T3 sequence (P41595 whole entry): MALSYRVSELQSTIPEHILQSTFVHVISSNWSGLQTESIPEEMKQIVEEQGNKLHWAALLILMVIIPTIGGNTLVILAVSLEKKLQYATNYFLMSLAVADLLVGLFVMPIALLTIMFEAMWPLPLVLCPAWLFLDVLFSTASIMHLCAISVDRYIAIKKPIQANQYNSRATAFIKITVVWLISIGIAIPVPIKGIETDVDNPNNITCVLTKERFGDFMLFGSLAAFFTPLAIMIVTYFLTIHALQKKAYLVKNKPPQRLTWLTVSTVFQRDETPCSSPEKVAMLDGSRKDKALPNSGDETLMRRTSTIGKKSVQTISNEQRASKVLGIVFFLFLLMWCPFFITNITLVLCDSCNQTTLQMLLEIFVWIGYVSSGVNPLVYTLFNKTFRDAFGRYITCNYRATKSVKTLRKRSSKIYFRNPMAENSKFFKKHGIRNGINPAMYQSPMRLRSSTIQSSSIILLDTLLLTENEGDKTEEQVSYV
# Rattus norvegicus = species on record: Rattus norvegicus; assay: Inhibition of rat glutamate receptor at 10 uM relative to control
# [10] = biological target: Alpha-2A adrenergic receptor (Homo sapiens) (UniProt P08913); assay: Inhibition of human alpha2A adrenergic receptor at 10 uM relative to control
# [11] = biological target: B2 bradykinin receptor (Homo sapiens) (UniProt P30411); assay: Inhibition of human bradykinin B2 receptor at 10 uM relative to control
# Chain of B2 bradykinin receptor (Homo sapiens) (P30411 whole entry): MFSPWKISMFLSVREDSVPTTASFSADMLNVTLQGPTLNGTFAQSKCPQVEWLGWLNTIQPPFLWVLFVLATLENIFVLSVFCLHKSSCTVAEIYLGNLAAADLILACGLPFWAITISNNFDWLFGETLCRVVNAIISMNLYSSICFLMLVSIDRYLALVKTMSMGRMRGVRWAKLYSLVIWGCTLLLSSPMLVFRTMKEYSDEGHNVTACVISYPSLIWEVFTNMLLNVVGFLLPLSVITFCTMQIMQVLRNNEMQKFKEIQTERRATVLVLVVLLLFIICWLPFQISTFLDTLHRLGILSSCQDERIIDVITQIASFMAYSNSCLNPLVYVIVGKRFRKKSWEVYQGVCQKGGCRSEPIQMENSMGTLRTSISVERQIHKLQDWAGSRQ
# Mu-type opioid receptor [12] = biological target: T4, Mu-type opioid receptor (Homo sapiens, UniProt P35372); assay: Inhibition of human mu opioid receptor at 0.1 uM relative to control
# T4 sequence (P35372 whole entry): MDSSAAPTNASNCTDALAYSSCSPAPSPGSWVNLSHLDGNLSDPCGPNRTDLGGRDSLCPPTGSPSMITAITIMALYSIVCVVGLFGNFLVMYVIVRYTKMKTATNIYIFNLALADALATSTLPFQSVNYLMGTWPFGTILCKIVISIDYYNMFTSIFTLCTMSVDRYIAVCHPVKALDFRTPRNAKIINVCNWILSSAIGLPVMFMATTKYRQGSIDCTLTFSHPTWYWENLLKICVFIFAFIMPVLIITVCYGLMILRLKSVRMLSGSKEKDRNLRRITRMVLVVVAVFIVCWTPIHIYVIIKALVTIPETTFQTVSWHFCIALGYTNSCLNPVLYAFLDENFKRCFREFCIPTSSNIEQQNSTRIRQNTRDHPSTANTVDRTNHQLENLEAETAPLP
# Oryctolagus cuniculus = species on record: Oryctolagus cuniculus; assay: Inhibition of rabbit monoamine transporter at 1 uM relative to control
# [13] = biological target: 5-hydroxytryptamine receptor 1B (Rattus norvegicus) (UniProt P28564); assay: Inhibition of rat 5-HT1B receptor at 0.1 uM relative to control
# Chain of 5-hydroxytryptamine receptor 1B (Rattus norvegicus) (P28564 whole entry): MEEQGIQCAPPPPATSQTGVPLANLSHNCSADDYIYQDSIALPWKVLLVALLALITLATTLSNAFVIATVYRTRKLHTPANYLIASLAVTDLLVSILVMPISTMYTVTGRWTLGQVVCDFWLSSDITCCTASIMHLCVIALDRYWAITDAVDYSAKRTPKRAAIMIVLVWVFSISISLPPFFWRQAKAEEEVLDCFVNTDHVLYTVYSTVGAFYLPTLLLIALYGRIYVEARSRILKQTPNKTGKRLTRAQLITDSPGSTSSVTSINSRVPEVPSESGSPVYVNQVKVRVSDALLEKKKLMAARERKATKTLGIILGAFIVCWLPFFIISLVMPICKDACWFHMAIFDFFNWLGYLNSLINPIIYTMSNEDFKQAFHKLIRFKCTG
# [14] = biological target: Neuromedin-K receptor (Homo sapiens) (UniProt P29371); assay: Inhibition of human NK3 receptor at 10 uM relative to control
# [15] = biological target: Proto-oncogene tyrosine-protein kinase Src (Homo sapiens) (UniProt P12931); assay: Inhibition of human SRC at 10 uM relative to control
# [16] = biological target: Somatostatin receptor type 1 (Homo sapiens) (UniProt P30872); assay: Inhibition of human SST1 receptor at 10 uM relative to control
# D(3) dopamine receptor [17] = biological target: T2, D(3) dopamine receptor; assay: Inhibition of human dopamine D3 receptor at 10 uM relative to control
# [18] = biological target: Endothelin-1 receptor (Homo sapiens) (UniProt P25101); assay: Inhibition of human ETA receptor at 10 uM relative to control
# [19] = biological target: Polyunsaturated fatty acid 5-lipoxygenase (Homo sapiens) (UniProt P09917); assay: Inhibition of human 5-lipoxygenase at 10 uM relative to control
# [20] = biological target: Muscarinic acetylcholine receptor M5 (Homo sapiens) (UniProt P08912); assay: Inhibition of human muscarinic M5 receptor at 10 uM relative to control
# [21] = biological target: T3, 5-hydroxytryptamine receptor 2B; assay: Inhibition of human 5-HT2B receptor at 1 uM relative to control
# [22] = biological target: Phosphodiesterase 3 (Homo sapiens) (UniProt Q14432+Q13370); assay: Inhibition of human PDE3 at 100 uM relative to control; format: protein assay
# [23] = biological target: Insulin receptor (Rattus norvegicus) (UniProt P15127); assay: Inhibition of rat insulin receptor at 10 uM relative to control
# Chain of Insulin receptor (Rattus norvegicus) (P15127 27-759 limits assumed): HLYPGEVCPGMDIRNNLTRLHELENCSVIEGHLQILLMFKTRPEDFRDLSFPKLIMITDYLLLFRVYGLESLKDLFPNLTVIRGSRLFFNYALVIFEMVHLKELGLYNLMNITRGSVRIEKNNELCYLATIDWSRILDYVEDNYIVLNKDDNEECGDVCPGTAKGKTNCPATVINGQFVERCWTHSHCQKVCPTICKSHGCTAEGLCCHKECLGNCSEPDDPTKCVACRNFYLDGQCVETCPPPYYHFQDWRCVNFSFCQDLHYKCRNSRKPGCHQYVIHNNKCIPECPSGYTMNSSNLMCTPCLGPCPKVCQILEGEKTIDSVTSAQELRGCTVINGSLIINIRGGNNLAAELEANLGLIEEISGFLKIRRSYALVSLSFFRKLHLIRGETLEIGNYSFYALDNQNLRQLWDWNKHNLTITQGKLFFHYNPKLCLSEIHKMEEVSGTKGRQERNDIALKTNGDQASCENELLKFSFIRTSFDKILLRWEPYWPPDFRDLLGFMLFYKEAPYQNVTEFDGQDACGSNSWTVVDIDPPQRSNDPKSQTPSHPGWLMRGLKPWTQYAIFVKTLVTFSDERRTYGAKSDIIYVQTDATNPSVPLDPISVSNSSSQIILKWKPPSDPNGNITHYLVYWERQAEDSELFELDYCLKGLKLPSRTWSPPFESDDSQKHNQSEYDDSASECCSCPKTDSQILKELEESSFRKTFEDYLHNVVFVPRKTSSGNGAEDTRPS
# Chain of Insulin receptor (Rattus norvegicus) (P15127 764-1383 limits assumed): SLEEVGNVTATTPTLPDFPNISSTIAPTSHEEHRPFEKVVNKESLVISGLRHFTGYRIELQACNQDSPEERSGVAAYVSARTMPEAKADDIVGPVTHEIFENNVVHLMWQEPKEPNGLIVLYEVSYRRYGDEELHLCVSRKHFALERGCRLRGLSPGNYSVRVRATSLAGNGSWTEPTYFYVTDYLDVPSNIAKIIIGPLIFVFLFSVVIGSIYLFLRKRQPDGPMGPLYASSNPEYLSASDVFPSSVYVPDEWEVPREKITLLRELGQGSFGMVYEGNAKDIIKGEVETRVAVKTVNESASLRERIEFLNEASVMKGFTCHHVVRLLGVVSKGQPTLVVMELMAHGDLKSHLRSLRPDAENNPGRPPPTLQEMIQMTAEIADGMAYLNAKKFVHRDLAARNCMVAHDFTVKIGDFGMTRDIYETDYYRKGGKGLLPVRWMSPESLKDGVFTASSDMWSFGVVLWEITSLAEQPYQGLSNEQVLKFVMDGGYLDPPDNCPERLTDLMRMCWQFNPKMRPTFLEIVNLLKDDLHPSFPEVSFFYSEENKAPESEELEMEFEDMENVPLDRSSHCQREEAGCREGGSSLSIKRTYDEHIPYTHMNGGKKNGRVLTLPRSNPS
# [24] = biological target: Oxytocin receptor (Homo sapiens) (UniProt P30559); assay: Inhibition of human oxytocin receptor at 10 uM relative to control
# [25] = biological target: B1 bradykinin receptor (Homo sapiens) (UniProt P46663); assay: Inhibition of human bradykinin B1 receptor at 10 uM relative to control
# [26] = biological target: Adrenergic receptor alpha-2 (Rattus norvegicus) (UniProt P22086+P19328+P22909); assay: Inhibition of rat alpha2 adrenergic receptor at 10 uM relative to control
# [27] = biological target: 5-hydroxytryptamine receptor 1B (Rattus norvegicus) (UniProt P28564); assay: Inhibition of rat 5-HT1B receptor at 10 nM relative to control
# [28] = biological target: Natriuretic peptides A (Cavia porcellus) (UniProt P27596); assay: Inhibition of guinea pig atrial natriuretic factor at 10 uM relative to control; settings: Cardiac atrium
# [29] = biological target: Neuropeptide Y receptor type 1 (Homo sapiens) (UniProt P25929); assay: Inhibition of human neuropeptide YY1 receptor at 10 uM relative to control
# Bos taurus = species on record: Bos taurus; assay: Inhibition of bovine PDE1 at 100 uM relative to control
# [30] = biological target: Phosphodiesterase 4 (Homo sapiens) (UniProt P27815+Q08499+Q07343+Q08493); assay: Inhibition of human PDE4 at 100 uM relative to control; format: protein assay
# [31] = biological target: Prostaglandin E2 receptor EP3 subtype (Homo sapiens) (UniProt P43115); assay: Inhibition of human prostanoid EP3 receptor at 10 uM relative to control
# Chain of Prostaglandin E2 receptor EP3 subtype (Homo sapiens) (P43115 whole entry): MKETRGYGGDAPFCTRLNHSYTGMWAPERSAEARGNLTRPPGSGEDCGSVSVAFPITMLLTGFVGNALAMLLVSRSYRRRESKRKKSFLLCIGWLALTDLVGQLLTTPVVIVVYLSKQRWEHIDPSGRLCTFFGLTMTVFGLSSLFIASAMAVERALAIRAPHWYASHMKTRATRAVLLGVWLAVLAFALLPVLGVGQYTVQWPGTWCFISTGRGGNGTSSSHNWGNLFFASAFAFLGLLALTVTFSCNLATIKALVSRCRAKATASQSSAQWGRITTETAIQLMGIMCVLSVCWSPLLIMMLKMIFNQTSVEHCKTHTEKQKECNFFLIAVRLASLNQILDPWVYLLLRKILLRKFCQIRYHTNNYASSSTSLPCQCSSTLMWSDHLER
# [32] = biological target: T1, 5-hydroxytryptamine receptor 1A (Homo sapiens); assay: Inhibition of human 5-HT1A receptor at 10 nM relative to control
# [33] = biological target: Tyrosine-protein phosphatase non-receptor type 1 (Homo sapiens) (UniProt P18031); assay: Inhibition of human PTP1B at 10 uM relative to control
# Mu-type opioid receptor [34] = biological target: T4, Mu-type opioid receptor; assay: Inhibition of human mu opioid receptor at 10 uM relative to control
# Chain of Caspase-3 (Homo sapiens) (P42574 29-175 limits assumed): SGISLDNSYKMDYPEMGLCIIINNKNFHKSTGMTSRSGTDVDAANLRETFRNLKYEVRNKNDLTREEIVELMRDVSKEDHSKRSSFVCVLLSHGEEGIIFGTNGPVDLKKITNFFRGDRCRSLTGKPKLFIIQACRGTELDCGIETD
# Chain of Caspase-3 (Homo sapiens) (P42574 176-277 limits assumed): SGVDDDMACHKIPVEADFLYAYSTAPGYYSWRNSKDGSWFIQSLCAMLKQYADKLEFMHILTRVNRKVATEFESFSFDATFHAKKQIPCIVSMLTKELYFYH
# Chain of Somatostatin receptor type 5 (Homo sapiens) (P35346 whole entry): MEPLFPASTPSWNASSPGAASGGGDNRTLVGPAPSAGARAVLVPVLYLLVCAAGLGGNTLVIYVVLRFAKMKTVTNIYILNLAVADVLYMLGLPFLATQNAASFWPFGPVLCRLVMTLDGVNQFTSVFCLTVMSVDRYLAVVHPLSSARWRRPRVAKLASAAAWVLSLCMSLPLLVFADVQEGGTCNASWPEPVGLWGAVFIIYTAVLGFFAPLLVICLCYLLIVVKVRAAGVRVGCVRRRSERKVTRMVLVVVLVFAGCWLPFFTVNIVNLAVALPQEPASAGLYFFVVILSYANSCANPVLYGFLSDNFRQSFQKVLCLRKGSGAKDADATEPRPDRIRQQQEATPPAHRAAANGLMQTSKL
smiles,measurement,setting,value
COc1ccc(CNC(=O)c2cc(-c3cc(Cl)cc(Cl)c3)cnc2-c2cccnc2)cc1OC,inhibition,Caspase-3 (Homo sapiens),-1%
same,inhibition,[1],14%
same,inhibition,[2],41%
same,inhibition,Caspase-6 (Homo sapiens),7%
same,inhibition,[3],-3%
same,inhibition,[4],9%
same,inhibition,[5],14%
same,inhibition,[6],-10%
same,inhibition,[7],30%
same,inhibition,D(3) dopamine receptor [8],3%
same,inhibition,[9],6%
same,inhibition,Rattus norvegicus,-6%
same,inhibition,[10],19%
same,inhibition,[11],-10%
same,inhibition,Mu-type opioid receptor [12],-3%
same,inhibition,Oryctolagus cuniculus,20%
same,inhibition,[13],9%
same,inhibition,[14],13%
same,inhibition,[15],-5%
same,inhibition,[16],14%
same,inhibition,D(3) dopamine receptor [17],51%
same,inhibition,[18],4%
same,inhibition,[19],44%
same,inhibition,[20],1%
same,inhibition,[21],52%
same,inhibition,[22],0%
same,inhibition,[23],-5%
same,inhibition,[24],14%
same,inhibition,[25],3%
same,inhibition,[26],37%
same,inhibition,[27],-4%
same,inhibition,[28],1%
same,inhibition,[29],23%
same,inhibition,Bos taurus,-3%
same,inhibition,[30],5%
same,inhibition,[31],19%
same,inhibition,[32],2%
same,inhibition,[33],1%
same,inhibition,Mu-type opioid receptor [34],62%
